The compounds below were run on NBD1/3D (assay: Aggregation analysis using differential static light scattering (DSLS), NBD1 thermal stability). Settings: ΔTagg versus DMSO control; compound at 100 μM.
Assay type: binding, Human
Description: Purified recombinant NBD1 was produced using previously described methods (A. Schmidt, J. L. Mendoza, P. J. Thomas (2011) Biochemical and Biophysical Approaches to Probe CFTR Structure (365-376) M. D. Amaral, K. Kunzelmann (eds.), Cystic Fibrosis, Methods in Molecular Biology 741, Springer Science+Business Media). The effect of test compounds on thermal stability of NBD1 was evaluated by differential static light scattering (DSLS) using the Harbinger Stargazer-384 instrument (Epiphyte Three, Toronto, Canada).
Test compounds were dissolved and diluted to desired concentrations in 100% DMSO. The compounds or DMSO controls (100 nL) were stamped into wells of a […] low volume optical plate (Corning Inc., Corning, NY) using the Echo 555 acoustic liquid handler (Labcyte Inc., San Jose, CA).
NBD1 protein was diluted to 0.2 mg/ml in S200 buffer (50 mM Tris-HCl, 150 mM NaCl, 5 mM MgCl2, 2 mM ATP, 2 mM DTT, pH7.6) containing 1% glycerol. 10 uL of protein solution was aliquoted into the 384-well plate harboring the test compounds and 10 uL mineral oil was overlayed onto the protein solution, using the epMotion robotic liquid handler (Eppendorf North America, Hauppauge, NY). After placing into the Stargazer instrument, the plate was heated at 1° C. per minute to 70° C. Images were captured from 25° C. to 70° C. every 0.5° C. At the end of the experiment run, instrument software integrated image files and analyzed data automatically. A […] regression curve was generated for each well, representing the increase in light scattering over time. A temperature of aggregation (Tagg) was calculated based on the inflection point of the curve. To better compare data across experiments the average Tagg for DMSO control wells was calculated and subtracted from values for wells containing compounds to obtain a “ΔTagg” value. These ΔTagg values reflect stabilizing efficacy of the compounds.
In the case of [2H]c1c[nH]c2c(F)c(F)c(Oc3ccc(F)c(-c4nc(C(C#N)(c5cc(F)cc(CCC(=O)O)c5)C([2H])([2H])[2H])c[nH]4)c3)c(F)c12 (single isomer, unassigned) [Example 67A, 3-(3-(1-cyano-1-(2-(2-fluoro-5-((4,6,7-trifluoro-1H-indol-5-yl-3-d)oxy)phenyl)-1H-imidazol-4-yl)ethyl-2,2,2-d3)-5-fluorophenyl)propanoic acid], the “DSLS NBD1/3D Human Stability delta-T (° C.) @ 100 (μM)” value (“DSLS NBD1/3D Human Stability delta-T” for short) is reported as “B (B: 5-10° C.)”.
Cc1c(Oc2ccc(F)c(-c3nnc(Cc4cccc(CCC(=O)O)c4)[nH]3)c2)c(F)cc2[nH]ccc12 [Example 238, 3-(3-((5-(2-Fluoro-5-((6-fluoro-4-methyl-1H-indol-5-yl)oxy)phenyl)-4H-1,2,4-triazol-3-yl)methyl)phenyl)propanoic acid] was tested, and the “DSLS NBD1/3D Human Stability delta-T” value was “B (B: 5-10° C.)”.
CC(C#N)(c1cccc(CCC(=O)O)c1)c1cnc(-c2cc(Oc3c(F)c(F)c4[nH]ccc4c3F)ccc2F)[nH]1 (centres unmarked) [Example 54, 3-(3-(1-cyano-1-(2-(2-fluoro-5-((4,6,7-trifluoro-1H-indol-5-yl)oxy)phenyl)-1H-imidazol-5-yl)ethyl)phenyl)propanoic acid] was tested, and the “DSLS NBD1/3D Human Stability delta-T” value was “B (B: 5-10° C.)”.
In the case of Cc1c(Oc2cccc(-c3ccnn3C(C)c3cccc(CC(=O)O)c3)c2)ccc2[nH]ccc12 (centres unmarked) [Example 3, 2-(3-(1-(5-(3-((4-methyl-1H-indol-5-yl)oxy)phenyl)-1H-pyrazol-1-yl)ethyl)phenyl)acetic acid], the “DSLS NBD1/3D Human Stability delta-T” value is reported as “C (C: ≤5° C.)”.
In the case of Cc1c(Oc2ccc(F)c(-c3ncc(C4(c5cccc(CCC(=O)O)c5)CC(C)OC(C)C4)[nH]3)c2)c(F)cc2[nH]ccc12 (centres unmarked) [Example 149, 3-(3-(4-(2-(2-fluoro-5-((6-fluoro-4-methyl-1H-indol-5-yl)oxy)phenyl)-1H-imidazol-5-yl)-2,6-dimethyltetrahydro-2H-pyran-4-yl)phenyl)propanoic acid], the “DSLS NBD1/3D Human Stability delta-T” value is reported as “B (B: 5-10° C.)”.
In the case of CS(=O)(=O)c1c(Oc2ccc(F)c(-c3nc(C4(c5cccc(CCC(=O)O)c5)CC4)co3)c2)c(F)cc2[nH]ccc12 [Example 81, 3-(3-(1-(2-(2-Fluoro-5-((6-fluoro-4-(methylsulfonyl)-1H-indol-5-yl)oxy)phenyl)oxazol-4-yl)cyclopropyl)phenyl)propanoic acid], the “DSLS NBD1/3D Human Stability delta-T” value is reported as “B (B: 5-10° C.)”.
With CC(c1cnc(-c2cc(Oc3c(F)cc4[nH]ccc4c3F)ccc2F)[nH]1)c1cc(F)cc(CCC(=O)O)c1F (single isomer, unassigned) [Example 132A, 3-(3-(1-(2-(5-((4,6-difluoro-1H-indol-5-yl)oxy)-2-fluorophenyl)-1H-imidazol-5-yl)ethyl)-2,5-difluorophenyl)propanoic acid] the “DSLS NBD1/3D Human Stability delta-T” value was “C (C: ≤5° C.)”.
For COC(=O)CCc1cccc(Cn2ccc(-c3cccc(Oc4ccc5[nH]ccc5c4CO)c3)n2)c1 [Example 8, Methyl 3-(3-((3-(3-((4-(hydroxymethyl)-1H-indol-5-yl)oxy)phenyl)-1H-pyrazol-1-yl)methyl)phenyl)propanoate], the “DSLS NBD1/3D Human Stability delta-T” value was “C (C: ≤5° C.)”.
In the case of Cc1c(Oc2ccc(F)c(-c3ncc(Cc4cccc(CCC(=O)O)c4)[nH]3)c2)c(F)cc2[nH]ccc12 [Example 115, 3-(3-((2-(2-fluoro-5-((6-fluoro-4-methyl-1H-indol-5-yl)oxy)phenyl)-1H-imidazol-5-yl)methyl)phenyl)propanoic acid], the “DSLS NBD1/3D Human Stability delta-T” value is reported as “B (B: 5-10° C.)”.
For CC(Cc1cccc([C@H](O)c2cnc(-c3cccc(Oc4c(F)cc5[nH]ccc5c4F)c3)[nH]2)c1)C(=O)O (stereo partly drawn) [Example 181, 3-(3-((S)-(2-(3-((4,6-Difluoro-1H-indol-5-yl)oxy)phenyl)-1H-imidazol-5-yl)(hydroxy)methyl)phenyl)-2-methylpropanoic acid], the “DSLS NBD1/3D Human Stability delta-T” value was “B (B: 5-10° C.)”.
CC(c1cnc(-c2cc(Oc3c(F)cc4[nH]ccc4c3CCP(C)(C)=O)ccc2F)[nH]1)c1cccc(CCC(=O)O)c1F (single isomer, unassigned) [Example 135B, 3-(3-(1-(2-(5-((4-(2-(dimethylphosphoryl)ethyl)-6-fluoro-1H-indol-5-yl)oxy)-2-fluorophenyl)-1H-imidazol-5-yl)ethyl)-2-fluorophenyl)propanoic acid] was tested, and the “DSLS NBD1/3D Human Stability delta-T” value was “C (C: ≤5° C.)”.
Cc1c(Oc2ccc(F)c(-c3ncc(C4(c5cccc(CCC(=O)O)c5)CCOC4)[nH]3)c2)c(F)cc2[nH]ccc12 (centres unmarked) [Example 153, 3-(3-(3-(2-(2-fluoro-5-((6-fluoro-4-methyl-1H-indol-5-yl)oxy)phenyl)-1H-imidazol-5-yl)tetrahydrofuran-3-yl)phenyl)propanoic acid] was tested, and the “DSLS NBD1/3D Human Stability delta-T” value was “A (A: T ≥ 10° C.)”.
For CC(O)(c1cccc(CS(N)(=O)=O)c1)c1cnc(-c2cccc(Oc3c(F)cc4[nH]ccc4c3F)c2)[nH]1 (centres unmarked) [Example 209, (3-(1-(2-(3-((4,6-difluoro-1H-indol-5-yl)oxy)phenyl)-1H-imidazol-5-yl)-1-hydroxyethyl)phenyl) methanesulfonamide], the “DSLS NBD1/3D Human Stability delta-T” value was “B (B: 5-10° C.)”.
For O=C(O)CCCCc1cccc(Cc2nnc(-c3cccc(Oc4ccc5[nH]ccc5c4)c3)[nH]2)c1 [Example 258, 5-(3-((5-(3-((1H-indol-5-yl)oxy)phenyl)-4H-1,2,4-triazol-3-yl)methyl)phenyl)pentanoic acid], the “DSLS NBD1/3D Human Stability delta-T” value was “C (C: ≤5° C.)”.
In the case of C[C@H]1C[C@](c2cccc(CCC(=O)O)c2)(c2cnc(-c3cc(Oc4c(F)cc5[nH]ccc5c4F)ccc3F)[nH]2)CCO1 (single isomer, unassigned) [Example 152], the “DSLS NBD1/3D Human Stability delta-T” value is reported as “B (B: 5-10° C.)”.
For CC(c1c[nH]c(-c2cc(Oc3c(F)cc4[nH]ccc4c3S(C)(=O)=O)ccc2F)n1)c1cccc(CC(=O)O)c1F (single isomer, unassigned) [Example 85, 2-(2-fluoro-3-(1-(2-(2-fluoro-5-((6-fluoro-4-(methylsulfonyl)-1H-indol-5-yl)oxy)phenyl)-1H-imidazol-4-yl)ethyl)phenyl)acetic acid], the “DSLS NBD1/3D Human Stability delta-T” value was “B (B: 5-10° C.)”.
In the case of CC(CC(=O)O)c1cccc([C@H](O)c2cnc(-c3cccc(Oc4c(F)cc5[nH]ccc5c4F)c3)[nH]2)c1 (stereo partly drawn) [Example 182, 3-(3-((S)-(2-(3-((4,6-Difluoro-1H-indol-5-yl)oxy)phenyl)-1H-imidazol-5-yl)(hydroxy)methyl)phenyl)butanoic acid], the “DSLS NBD1/3D Human Stability delta-T” value is reported as “B (B: 5-10° C.)”.
In the case of CC(=O)CCc1cc(F)cc(C(C)(O)c2c[nH]c(-c3cc(Oc4c(F)cc5[nH]ccc5c4F)ccc3F)n2)c1 (centres unmarked) [Example 221, 4-(3-(1-(2-(5-((4,6-Difluoro-1H-indol-5-yl)oxy)-2-fluorophenyl)-1H-imidazol-4-yl)-1-hydroxyethyl)-5-fluorophenyl)butan-2-one], the “DSLS NBD1/3D Human Stability delta-T” value is reported as “C (C: ≤5° C.)”.
With [2H]C([2H])([2H])C(C#N)(c1cccc(CCC(=O)O)c1)c1cnc(-c2cc(Oc3c(F)cc4[nH]ccc4c3C)ccc2F)[nH]1 (centres unmarked) [Example 59, 3-(3-(1-cyano-1-(2-(2-fluoro-5-((6-fluoro-4-methyl-1H-indol-5-yl)oxy)phenyl)-1H-imidazol-5-yl)ethyl-2,2,2-d3)phenyl)propanoic acid] the “DSLS NBD1/3D Human Stability delta-T” value was “B (B: 5-10° C.)”.
With Cc1c(Oc2cccc(-c3c(F)cnn3Cc3cccc(CCC(=O)O)c3)c2)c(F)cc2[nH]ccc12 [Example 20, 3-(3-((4-Fluoro-5-(3-((6-fluoro-4-methyl-1H-indol-5-yl)oxy)phenyl)-1H-pyrazol-1-yl)methyl)phenyl)propanoic acid] the “DSLS NBD1/3D Human Stability delta-T” value was “C (C: ≤5° C.)”.
For CC(c1cccc(CCC(=O)O)c1F)n1ccc(-c2cc(Oc3c(F)cc4[nH]ccc4c3S(C)(=O)=O)ccc2F)n1 (single isomer, unassigned) [Example 41A, 3-(2-fluoro-3-(1-(3-(2-fluoro-5-((6-fluoro-4-(methylsulfonyl)-1H-indol-5-yl)oxy)phenyl)-1H-pyrazol-1-yl)ethyl)phenyl)propanoic acid], the “DSLS NBD1/3D Human Stability delta-T” value was “C (C: ≤5° C.)”.
With CC(c1c[nH]c(-c2cc(Oc3c(F)cc4[nH]ccc4c3S(C)(=N)=O)ccc2F)n1)c1cccc(CCC(=O)O)c1F (single isomer, unassigned) [Example 136A, 3-(2-fluoro-3-(1-(2-(2-fluoro-5-((6-fluoro-4-(S-methylsulfonimidoyl)-1H-indol-5-yl)oxy)phenyl)-1H-imidazol-4-yl)ethyl)phenyl)propanoic acid] the “DSLS NBD1/3D Human Stability delta-T” value was “B (B: 5-10° C.)”.
Cc1c(Oc2ccc(F)c(-c3nnc(Cc4cccc(N5CC(C(=O)O)C5)c4)[nH]3)c2)c(F)cc2[nH]ccc12 [Example 249, 1-(3-((5-(2-Fluoro-5-((6-fluoro-4-methyl-1H-indol-5-yl)oxy)phenyl)-4H-1,2,4-triazol-3-yl)methyl)phenyl)azetidine-3-carboxylic acid] was tested, and the “DSLS NBD1/3D Human Stability delta-T” value was “C (C: ≤5° C.)”.

From patent US20240279220A1, “INDOLE COMPOUNDS AND METHODS OF USE” (Genzyme Corporation, priority 2021, published 2024)
